# Measurements published in patent publication US11607393B2, “Drug delivery method for targeting cancer stem cells” (priority 2017, dated 2023).
# How the values were obtained:
# [1] = system: MDA-MB-231 human breast cancer cells; experiment: MDA-MB-231 cells in 3D non-adherent PEG diacrylate matrix (stem sub-population), cell viability and tumorsphere number; type: cell-based
# [2] = system: MDA-MB-231 human breast cancer cells; experiment: MDA-MB-231 cells on 2D adherent polystyrene culture plates (differentiated sub-population), cell viability; type: cell-based
# Procedure: (§1) MDA-MB-231 human breast cancer cells were cultured on 2D adherent polystyrene culture plates that enriched the differentiated cell sub-population (CDC) and in 3D polyethylene glycol diacrylate crosslinked non-adherent matrix that enriches the stem sub-population (CSC). FIGS. 4A-4D compare cell content and the expression of CD44, ABCG2, and EGFR markers as a function of time.
# FIGS. 5A-5D show the response of the MDA-MB-231 human breast cancer cells cultured in 2D adherent plates and 3D non-adherent matrix to treatment with Doxorubicin (DOX) cancer drug. For the 2D culture, cell viability decreased exponentially as the drug concentration increased (FIG. 5A) and reached about 5% as the drug concentration was increased to 5 μM.
# CD44 = experiment: Expression of CSC marker CD44 in MDA-MB-231 cells in 3D non-adherent matrix; type: cell-based, human
# Procedure: as §1
# (§2) FIG. 6A and FIG. 6B show the expression of CSC markers CD44 and EGFR, respectively, of MDA-MB-231 (MDA) human breast cancer cells grown in a 3D non-adherent matrix, as described in Example 1 above, after exposure to free Paclitaxel (PTX) or PTX conjugated to POSS nanoparticles (PTXconjPOSS) as a function of incubation time.
# EGFR = experiment: Expression of stem cell marker EGFR in MDA-MB-231 cells in 3D non-adherent matrix; type: cell-based, human; details: as a function of incubation time (FIG. 6B)
# Procedure: as §1, §2
smiles,measurement,setting,value
"COc1cccc2c1C(=O)c1c(O)c3c(c(O)c1C2=O)C[C@@](O)(C(=O)CO)C[C@@H]3O[C@H]1C[C@H](N)[C@H](O)[C@H](C)O1 [DOX, Doxorubicin]",number of tumorspheres,"[1]; 3D matrix, 0.5 μM DOX concentration (FIG. 5C)",first increased
same,"number of tumorspheres, % of the initial number","[1]; 3D matrix, DOX concentration above 0.5 μM (FIG. 5C)",85%
same,cell viability,"[1]; 3D matrix, drug concentration 0.5 μM (FIG. 5B)",first increased
same,effectiveness against cells in 3D non-adherent matrix,"[1]; 3D non-adherent matrix, stem cell sub-population dominates (FIGS. 5B-5D)",not effective
same,viability at 5 µM,"[1]; Homo sapiens, MDA-MB-231, 3D matrix, 5 μM DOX concentration (FIG. 5B)",35%
same,cells removed,[2]; 2D culture (FIG. 5A),95%
same,viability at 5 µM,"[2]; Homo sapiens, MDA-MB-231, 2D culture, drug concentration 5 μM (FIG. 5A)",~5%
same,expression of CSC marker CD44,"CD44; 3D matrix, higher DOX concentrations (FIG. 5D)",dramatically increased
"CC(=O)O[C@H]1C(=O)[C@@]2(C)[C@H]([C@H](OC(=O)c3ccccc3)[C@]3(O)C[C@H](OC(=O)[C@H](O)[C@@H](NC(=O)c4ccccc4)c4ccccc4)C(C)=C1C3(C)C)[C@]1(OC(C)=O)CO[C@@H]1C[C@@H]2O [PTX, Paclitaxel]",effectiveness against the differentiated sub-population of cancer cells,[2]; no data shown,effective
same,expression of CD44,"CD44; 3D non-adherent matrix, as a function of incubation time (FIG. 6A)",very high expression
same,toxicity to CSCs,CD44; concluded from CD44 and EGFR expression in 3D non-adherent matrix,not toxic to CSCs
same,expression of EGFR,EGFR,very high expression
